Source: US20100120763A1, “IMIDAZO[5,1-C][1,2,4]BENZOTRIAZINE DERIVATIVES AS INHIBITORS OF PHOSPHODIESTERASES” (priority 2008, published 2010)
Read-outs that look alike come from different tables or passages of the source.

Assays:
PDE10A = molecular target: T1, PDE10A (Homo sapiens, UniProt Q9Y233); experiment: Inhibition of recombinant PDE10A (baculovirus/SF21 system), [3H]-cAMP SPA; assay type: biochemical; conditions: read-out: PDE10A IC50
T1 construct: made in house; host or cells: SF21 insect cells (baculovirus)
Protocol: Inhibition of Recombinant PDE10A (Baculovirus/SF21 System)
The gene was than inserted into a baculovirus vector, ligated with the baculovirus DNA. The enzyme-protein was expressed in SF21-cells. The enzyme was isolated from these cells by harvesting the cells by an centrifugation at 500 g to collect the cells.
The cells were resuspended in 50 mM Tris-HCl/1 mM EDTA/250 mM Sucrose buffer, pH=7.4 (Sigma, Deisenhofen, Germany; Merck, Darmstadt, Germany) and lysed by sonification of the cells (three times for 15 seconds, Labsonic U, Fa. Braun, Degersheim, Switzerland, level “high”). The cytosolic PDE10A was obtained by a centrifugation at 48,000 g for 1 h in the supernatant and stored at −70° C.
PDE activity was determined in a one step procedure in microtiter plates. The reaction mixture of 100 μl contained 50 mM Tris-HCl/5 mM MgCl2 buffer (pH=7.4, Sigma, Deisenhofen, Germany; Merck, Darmstadt, Germany) 0.1 μM [3H]-cAMP (Amersham, Buckinghamshire, UK) and the enzyme. Non-specific enzyme activity was determined without the enzyme. The reaction was initiated by addition of the substrate solution and was carried out at 37° C. for 30 minutes. Enzymatic activity then was stopped by addition of 25 μl Ysi-SPA-beads (Amersham-Pharmacia). One hour later the mixture was measured in a liquid scintillation counter for microtiter plates (Microbeta Trilux). The Biomek 2000 (Beckman) was used routinely for pipetting of the incubation mixture. […] For determination of IC50 values the Hill-plot, 2-parameter-model, was used.

PDE2A = molecular target: T2, PDE2A (Homo sapiens, UniProt O00408); experiment: Inhibition of recombinant PDE2A (expressed in baculovirus/SF21-cells), [3H]-cAMP SPA; assay type: biochemical
T2 construct: made in house; host or cells: SF21 insect cells (baculovirus)
Protocol: Inhibition of Recombinant PDE2A (Expressed in Baculovirus/SF21-Cells)
PDE2A (NM002599) was cloned and the gene was inserted in the baculovirus and the enzyme-protein expressed in SF21-cells. The enzyme was isolated from these cells by harvesting the cells by an centrifugation at 200 g to collect the cells. The cells were resuspended in 50 mM Tris-HCl/5 mM MgCl2 buffer (pH=7.4) (Sigma, Deisenhofen, Germany; Merck, Darmstadt, Germany) and lysed by a sonication of the cells (three times for 15 seconds, Labsonic U, Fa. Braun, Degersheim, Switzerland, level “high”). The membrane fraction of PDE2A was obtained by a centrifugation at 48 000 g for 1 h, resuspended in buffer and stored at −70° C.
PDE2A activity was determined in a one step procedure in microtiterplates. The reaction mixture of 100 μl contained 50 mM Tris-HCl/5 mM MgCl2 buffer (pH=7.4) (Sigma, Deisenhofen, Germany; Merck, Darmstadt, Germany), 0.5 μM [3H]-cAMP (Amersham, Buckinghamshire, UK), 1000 nM cGMP and the enzyme. Non-specific enzyme activity was tested in the absence of cGMP. The reaction was initiated by addition of the substrate solution and was carried out at 37° C. for 30 minutes. Enzymatic activity then was stopped by addition of 25 μl SPA-beads (Amersham-Pharmacia). One hour later the mixture was measured in a liquid scintillation counter for microtiterplates (Microbeta Trilux). For pipetting of the incubation mixture the robot Biomek (Fa. Beckman) was routinely used.
For determination of IC50 values the Hill-plot, 2-parameter-model, was used.

[1] = recombinant PDE10A1, cytosolic, 0.1 μM [3H]-cAMP, 37° C., 30 minutes

T1 sequence (Q9Y233 1-779 isoform Q9Y233-1): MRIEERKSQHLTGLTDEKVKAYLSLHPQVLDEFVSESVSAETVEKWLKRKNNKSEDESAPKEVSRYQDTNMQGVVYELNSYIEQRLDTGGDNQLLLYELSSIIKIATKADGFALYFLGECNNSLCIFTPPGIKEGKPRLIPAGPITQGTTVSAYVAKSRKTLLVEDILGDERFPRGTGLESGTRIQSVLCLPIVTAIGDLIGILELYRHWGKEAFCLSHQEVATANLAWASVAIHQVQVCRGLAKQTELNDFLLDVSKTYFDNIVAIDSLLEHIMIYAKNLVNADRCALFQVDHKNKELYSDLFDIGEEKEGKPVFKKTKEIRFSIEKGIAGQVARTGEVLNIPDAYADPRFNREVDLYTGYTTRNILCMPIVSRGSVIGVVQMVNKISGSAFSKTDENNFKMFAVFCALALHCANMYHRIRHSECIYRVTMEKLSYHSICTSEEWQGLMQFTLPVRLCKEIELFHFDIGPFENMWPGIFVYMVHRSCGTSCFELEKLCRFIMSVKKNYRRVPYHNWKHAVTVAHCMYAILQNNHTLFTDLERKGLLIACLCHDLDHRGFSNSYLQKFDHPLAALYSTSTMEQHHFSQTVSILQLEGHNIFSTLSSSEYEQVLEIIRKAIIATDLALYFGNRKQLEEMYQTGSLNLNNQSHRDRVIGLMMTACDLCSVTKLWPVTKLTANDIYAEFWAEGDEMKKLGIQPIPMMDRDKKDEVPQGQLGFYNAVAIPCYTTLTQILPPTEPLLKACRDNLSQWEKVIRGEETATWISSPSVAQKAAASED
T2 sequence (O00408 whole entry): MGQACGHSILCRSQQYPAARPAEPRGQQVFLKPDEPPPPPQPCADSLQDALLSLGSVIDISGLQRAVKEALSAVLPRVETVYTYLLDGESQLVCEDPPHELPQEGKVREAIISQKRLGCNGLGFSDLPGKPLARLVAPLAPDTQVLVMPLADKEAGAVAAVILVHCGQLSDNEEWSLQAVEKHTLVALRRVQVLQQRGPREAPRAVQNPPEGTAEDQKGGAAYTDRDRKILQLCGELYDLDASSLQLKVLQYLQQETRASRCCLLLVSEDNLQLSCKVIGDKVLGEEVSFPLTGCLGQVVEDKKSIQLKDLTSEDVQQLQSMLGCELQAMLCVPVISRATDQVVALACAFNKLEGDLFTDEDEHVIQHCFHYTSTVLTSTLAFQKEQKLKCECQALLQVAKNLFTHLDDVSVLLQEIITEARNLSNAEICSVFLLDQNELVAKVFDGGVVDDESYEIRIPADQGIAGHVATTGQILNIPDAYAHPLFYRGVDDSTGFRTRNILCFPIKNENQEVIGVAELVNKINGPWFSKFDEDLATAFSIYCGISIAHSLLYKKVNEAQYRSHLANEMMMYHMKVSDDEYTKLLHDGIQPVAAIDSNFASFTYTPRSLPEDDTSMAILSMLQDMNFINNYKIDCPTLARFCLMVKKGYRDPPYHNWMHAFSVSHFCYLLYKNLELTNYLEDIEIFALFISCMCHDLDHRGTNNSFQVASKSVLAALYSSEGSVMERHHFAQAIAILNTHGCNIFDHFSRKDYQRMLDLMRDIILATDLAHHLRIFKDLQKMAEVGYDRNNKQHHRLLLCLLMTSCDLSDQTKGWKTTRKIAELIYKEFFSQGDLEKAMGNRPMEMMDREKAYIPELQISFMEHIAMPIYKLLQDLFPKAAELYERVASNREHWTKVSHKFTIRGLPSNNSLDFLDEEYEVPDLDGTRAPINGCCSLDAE

Row | Molecule | IC50 (PDE10A; [1]) [nM] | IC50 (PDE2A) [nM] | IC50 (PDE10A) [nM]
1 | Cc1cn(-c2ccc3nnc4c(C)nc(C5CCCCC5)n4c3c2)c(C2CCCCC2)n1 [Example 179, 1-Cyclohexyl-8-(2-cyclohexyl-4-methyl-imidazol-1-yl)-3-methyl-imidazo[5,1-c][1,2,4]benzotriazine] | 322 | 242 | 
2 | COc1cc(F)c2nnc3c(C)nc(-c4cc(C)ccc4Cl)n3c2c1 [Example 72, 1-(2-chloro-5-methylphenyl)-6-fluoro-8-methoxy-3-methylimidazo[5,1-c][1,2,4]benzotriazine] | 7.77 | 14.4 | 
3 | COc1cncc(-c2nc(C)c3nnc4c(OC)cc(F)cc4n23)c1 [Example 122, 8-fluoro-6-methoxy-1-(5-methoxypyridin-3-yl)-3-methylimidazo[5,1-c][1,2,4]benzotriazine] | 39.3 | 1620 | 
4 | COc1cc(F)cc2c1nnc1c(C)nc(-c3ccc(F)cc3C)n12 [Example 110, 8-fluoro-1-(4-fluoro-2-methylphenyl)-6-methoxy-3-methylimidazo[5,1-c][1,2,4]benzotriazine] | 8.52 | 609 | 
5 | COc1cc(F)cc2c1nnc1c(C)nc(-c3cnccc3C)n12 [Example 123, 8-fluoro-6-methoxy-3-methyl-1-(4-methylpyridin-3-yl)imidazo[5,1-c][1,2,4]benzotriazine] | 25.4 | 2380 | 
6 | COc1cc(F)c2nnc3c(C)nc(-c4c(C)n[nH]c4C)n3c2c1 [Example 96, 1-(3,5-dimethyl-1H-pyrazol-4-yl)-6-fluoro-8-methoxy-3-methylimidazo[5,1-c][1,2,4]benzotriazine] | 53.1 | 40.3 | 
7 | COc1cc(F)cc2c1nnc1c(C)nc(-c3sccc3C)n12 [Example 119, 8-fluoro-6-methoxy-3-methyl-1-(3-methylthiophen-2-yl)imidazo[5,1-c][1,2,4]benzotriazine] | 1.64 | 269 | 
8 | COc1cccc(-c2nc(C)c3nnc4c(F)cc(OC)cc4n23)c1 [Example 67, 6-fluoro-8-methoxy-1-(3-methoxyphenyl)-3-methylimidazo[5,1-c][1,2,4]benzotriazine] | 16.8 | 64.8 | 
9 | COc1cc(F)cc2c1nnc1c(C)nc(-c3ccc(C)cc3F)n12 [Example 114, 8-fluoro-1-(2-fluoro-4-methylphenyl)-6-methoxy-3-methylimidazo[5,1-c][1,2,4]benzotriazine] | 17.1 | 1060 | 
10 | CCOc1ccc(Cl)c(-c2nc(C)c3nnc4c(F)cc(OC)cc4n23)c1 [Example 77, 1-(2-chloro-5-ethoxyphenyl)-6-fluoro-8-methoxy-3-methylimidazo[5,1-c][1,2,4]benzotriazine] | 30.9 | 10.3 | 
11 | COc1cc(OCc2ccccc2)cc2c1nnc1c(C)nc(-c3cccnc3C)n12 [Example 154, 8-(benzyloxy)-6-methoxy-3-methyl-1-(2-methylpyridin-3-yl)imidazo[5,1-c][1,2,4]benzotriazine] | 0.67 | 73.9 | 
12 | COc1cc(F)cc2c1nnc1c(C)nc(-c3cc(F)ccc3Cl)n12 [Example 118, 1-(2-chloro-5-fluorophenyl)-8-fluoro-6-methoxy-3-methylimidazo[5,1-c][1,2,4]benzotriazine] | 2.02 |  | 
13 | COc1cc(F)c2nnc3c(C)nc(-c4sccc4C)n3c2c1 [Example 81, 6-fluoro-8-methoxy-3-methyl-1-(3-methylthiophen-2-yl)imidazo[5,1-c][1,2,4]benzotriazine] | 9.43 | 35.9 | 
14 | COc1cc(OC)c2nnc3c(C)nc(-c4ccncc4C)n3c2c1 [Example 47, 6,8-dimethoxy-3-methyl-1-(3-methylpyridin-4-yl)-imidazo[5,1-c][1,2,4]benzotriazine] | 2.06 | 589 | 
15 | COc1cc(F)c2nnc3c(C)nc(-c4ccc(F)cc4Cl)n3c2c1 [Example 70, 1-(2-chloro-4-fluorophenyl)-6-fluoro-8-methoxy-3-methylimidazo[5,1-c][1,2,4]benzotriazine] | 12.5 | 22.8 | 
16 | Cc1nc(-c2cc(Cl)ccc2Cl)n2c1nnc1c(Cl)cc(C(F)(F)F)cc12 [Example 133, 6-chloro-1-(2,5-dichlorophenyl)-3-methyl-8-(trifluoromethyl)imidazo[5,1-c][1,2,4]benzotriazine] | 9.69 | 403 | 
17 | COc1cc(F)cc2c1nnc1c(C)nc(-c3cc(OC(F)(F)F)ccc3Cl)n12 [Example 125, 1-[2-chloro-5-(trifluoromethoxy)phenyl]-8-fluoro-6-methoxy-3-methylimidazo[5,1-c][1,2,4]benzotriazine] | 12.1 | 117 | 
18 | COc1cc(F)c2nnc3c(C)nc(-c4cc(Cl)ccc4C)n3c2c1 [Example 79, 1-(5-chloro-2-methylphenyl)-6-fluoro-8-methoxy-3-methylimidazo[5,1-c][1,2,4]benzotriazine] | 15.2 | 8.39 | 
19 | COc1cc(F)cc2c1nnc1c(C)nc(-c3cnc(F)c(C)c3)n12 [Example 121, 8-fluoro-1-(6-fluoro-5-methylpyridin-3-yl)-6-methoxy-3-methylimidazo[5,1-c][1,2,4]benzotriazine] | 133 | > 1000 | 
20 | COc1cc(F)cc2c1nnc1c(C)nc(-c3sc(C)nc3C)n12 [Example 127, 1-(2,4-dimethyl-1,3-thiazol-5-yl)-8-fluoro-6-methoxy-3-methylimidazo[5,1-c][1,2,4]benzotriazine] | 11.7 | 3420 | 
21 | COc1cc(OC(F)F)cc2c1nnc1c(C)nc(-c3cnccc3C)n12 [Example 150, 8-(difluoromethoxy)-6-methoxy-3-methyl-1-(4-methylpyridin-3-yl)benzo[e]imidazo[5,1-c][1,2,4]triazine] | 7 | 944 | 
22 | COc1ccc(F)c(-c2nc(C)c3nnc4c(F)cc(OC)cc4n23)c1 [Example 76, 6-fluoro-1-(2-fluoro-5-methoxyphenyl)-8-methoxy-3-methylimidazo[5,1-c][1,2,4]benzotriazine] | 9.6 | 9.3 | 
23 | Cc1nc(-c2ccccc2Cl)n2c1nnc1ccc(N3CCCCC3)cc12 [Example 183, 1-(2-Chloro-phenyl)-3-methyl-8-piperidin-1-yl-imidazo[5,1-c][1,2,4]benzotriazine] | 12.1 | 7.79 | 
24 | COc1cc(F)cc2c1nnc1c(C)nc(-c3cc(C)ccc3Cl)n12 [Example 107, 1-(2-chloro-5-methylphenyl)-8-fluoro-6-methoxy-3-methylimidazo[5,1-c][1,2,4]benzotriazine] | 2.98 | 62.5 | 
25 | 8-fluoro-6-methoxy-3-methyl-1-(3-methylpyridin-4-yl)imidazo[5,1-c][1,2,4]benzotriazine [Example 131] | 7.2 |  | 
26 | COc1ccc(Cl)cc1-c1nc(C)c2nnc3c(OC)cc(C(F)(F)F)cc3n12 [Example 142, 1-(5-Chloro-2-methoxyphenyl)-6-methoxy-3-methyl-8-(trifluoromethyl)benzo[e]imidazo[5,1-c][1,2,4]triazine] | 10.6 |  | 
27 | Cc1cnccc1-c1nc(C)c2nnc3c(Cl)cc(C(F)(F)F)cc3n12 [Example 132, 6-Chloro-3-methyl-1-(3-methylpyridin-4-yl)-8-(trifluoromethyl)imidazo[5,1-c][1,2,4]benzotriazine] | 32.7 |  | 
28 | COc1cc(F)cc2c1nnc1c(C)nc(-c3cc(C)ccc3F)n12 [Example 105, 8-fluoro-1-(2-fluoro-5-methylpehnyl)-6-methoxy-3-methylimidazo[5,1-c][1,2,4]benzotriazine] | 7.13 |  | 
29 | 8-fluoro-6-methoxy-3-methyl-1-(2-methylpyridin-3-yl)imidazo[5,1-c][1,2,4]benzotriazine [Example 130] |  |  | 7.84
